Test results: the supplement of paper PMC10307832

Legend:
Assay in all cases: relative viability (nuclei count vs DMSO), 5 days (fraction); higher = more cells survive
Bicalutamide + Dasatinib = compound: CC(O)(CS(=O)(=O)c1ccc(F)cc1)C(=O)Nc1ccc(C#N)c(C(F)(F)F)c1 [Bicalutamide] + Cc1nc(Nc2ncc(C(=O)Nc3c(C)cccc3Cl)s2)cc(N2CCN(CCO)CC2)n1 [Dasatinib] (partner 0.075 µM)
How it was run: (§1)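 Relative viability is defined as nuclei in treated wells over nuclei in vehicle wells. Duplicate plates were run and medians reported. Lung cancer cell lines in 1536-well plates were dosed by pin tool one day after seeding, with one drug or with a fixed anchor-drug dose plus five library-drug doses (not always all listed) in √10 steps, and nuclei were counted after 5 days.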

[1] = compound: C(C(=O)C(=O)O)Br [Bromopyruvate] + CS(=O)(=O)N1CCN(Cc2cc3nc(-c4cccc5[nH]ncc45)nc(N4CCOCC4)c3s2)CC1 [Pictilisib] (partner 1 µM)
How it was run: as §1

Bromopyruvate + Olaparib = compound: C(C(=O)C(=O)O)Br [Bromopyruvate] + O=C(c1cc(Cc2n[nH]c(=O)c3ccccc23)ccc1F)N1CCN(C(=O)C2CC2)CC1 [Olaparib] (partner 8 µM)
How it was run: as §1

[2] = compound: C(C(=O)C(=O)O)Br [Bromopyruvate] + CC(C)C[C@H](NC(=O)[C@H](Cc1ccccc1)NC(=O)c1cnccn1)B(O)O [Bortezomib] (partner 0.002 µM)
How it was run: as §1

| Cell Line | relative viability (Bicalutamide + Dasatinib; first compound 0.08 µM) | relative viability (Bicalutamide + Dasatinib; first compound 0.253 µM) | relative viability (Bicalutamide + Dasatinib; first compound 0.8 µM) | relative viability (Bicalutamide + Dasatinib; first compound 2.53 µM) | relative viability ([1]; first compound 1 µM) | relative viability ([1]; first compound 3.162 µM) | relative viability ([1]; first compound 10 µM) | relative viability ([1]; first compound 31.62 µM) | relative viability ([1]; first compound 100 µM) | relative viability (Bromopyruvate + Olaparib; first compound 1 µM) | relative viability (Bromopyruvate + Olaparib; first compound 3.162 µM) | relative viability (Bromopyruvate + Olaparib; first compound 10 µM) | relative viability (Bromopyruvate + Olaparib; first compound 31.62 µM) | relative viability (Bromopyruvate + Olaparib; first compound 100 µM) | relative viability ([2]; first compound 1 µM) | relative viability ([2]; first compound 3.162 µM) | relative viability ([2]; first compound 10 µM) | relative viability ([2]; first compound 31.62 µM) | relative viability ([2]; first compound 100 µM) |
| --- | --- | --- | --- | --- | --- | --- | --- | --- | --- | --- | --- | --- | --- | --- | --- | --- | --- | --- | --- |
| NCI-H661 | 0.95 | 0.844 | 1.03 | 0.722 | 0.445 | 0.349 | 0.458 | 0.337 | 0.354 | 0.734 | 0.7 | 0.799 | 0.731 | 0.65 | 0.862 | 0.755 | 0.84 | 0.854 | 0.98 |
| NCI-H727 | 0.376 |  | 0.383 | 0.653 | 0.359 | 0.417 | 0.604 | 0.389 | 0.339 | 0.666 | 0.707 | 0.764 | 0.79 | 0.634 | 1.01 | 0.984 | 0.939 | 0.729 | 1.01 |
| NCI-H838 | 0.319 | 0.303 | 0.392 | 0.272 | 0.463 | 0.446 | 0.495 | 0.493 | 0.448 | 0.758 | 0.757 | 0.86 | 0.781 | 0.686 | 0.915 | 0.886 | 0.773 | 0.786 | 0.763 |
| NCI-H1355 | 0.753 | 0.639 | 0.797 | 0.729 | 0.43 | 0.438 | 0.466 | 0.577 | 0.422 | 0.738 | 0.762 | 0.681 | 0.764 | 0.776 | 1.35 | 1.16 | 1.25 | 1.34 | 1.16 |
| NCI-H1437 | 0.412 | 0.406 | 0.466 | 0.447 | 0.464 | 0.502 | 0.47 | 0.413 | 0.496 | 0.647 | 0.664 | 0.656 | 0.62 | 0.627 | 0.546 | 0.458 | 0.485 | 0.405 | 0.626 |
| NCI-H1650 | 0.34 | 0.245 | 0.381 | 0.301 | 0.545 | 0.532 | 0.567 | 0.651 | 0.512 | 0.82 | 0.734 | 0.723 | 0.71 | 0.567 | 0.196 | 0.194 | 0.209 | 0.255 | 0.19 |
| NCI-H1651 | 0.449 | 0.322 | 0.471 | 0.451 | 0.516 | 0.539 | 0.69 | 0.594 | 0.549 | 0.188 | 0.182 | 0.187 | 0.207 | 0.167 | 0.922 | 0.952 | 1.04 | 0.822 | 0.867 |
| NCI-H1666 | 0.915 | 0.789 | 0.767 | 0.731 | 0.43 | 0.418 | 0.567 | 0.558 | 0.531 | 0.685 | 0.733 | 0.73 | 0.707 | 0.716 | 0.804 | 0.847 | 0.638 | 0.89 | 0.819 |
| NCI-H1734 | 0.454 | 0.4 | 0.561 | 0.367 | 0.493 | 0.486 | 0.542 | 0.551 | 0.451 | 0.68 | 0.585 | 0.729 | 0.616 | 0.429 | 0.984 | 0.89 | 1.11 | 0.97 | 1.09 |
| NCI-H1755 | 0.397 | 0.382 | 0.446 | 0.351 | 0.484 | 0.512 | 0.448 | 0.467 | 0.456 | 0.935 | 0.865 | 0.854 | 0.924 | 0.936 | 0.967 | 0.938 | 0.994 | 1.01 | 1.03 |
| NCI-H1792 | 0.84 | 0.509 | 1.06 | 0.856 | 0.306 | 0.29 | 0.328 | 0.317 | 0.212 | 0.0016 | 0.469 | 0.532 | 0.582 | 0.68 | 1.01 | 0.932 | 1.11 | 0.879 | 0.915 |
| NCI-H1915 | 0.317 | 0.29 | 0.301 | 0.252 | 0.95 | 0.934 | 0.9 | 0.955 | 0.897 | 0.261 | 0.267 | 0.242 | 0.254 | 0.22 | 1 | 1.02 | 1.01 | 0.929 | 0.975 |
| NCI-H1975 | 0.396 | 0.376 | 0.462 | 0.334 | 0.301 | 0.318 | 0.323 | 0.326 | 0.3 | 0.858 | 0.79 | 1.11 | 0.755 | 0.605 | 0.423 | 0.431 | 0.475 | 0.405 | 0.5 |
| NCI-H1993 | 0.576 | 0.461 | 0.711 | 0.582 | 0.827 | 0.729 | 0.895 | 0.935 | 0.774 | 1.56 | 1 | 0.927 | 1.09 | 1.02 | 1.34 | 0.954 | 1.21 | 1.08 | 1.15 |
| NCI-H2009 | 0.337 | 0.321 | 0.278 | 0.222 | 0.764 | 0.831 | 0.742 | 0.709 | 0.613 | 0.672 | 0.688 | 0.727 | 0.645 | 0.461 | 1.02 | 1.02 | 0.918 | 0.897 | 0.768 |
| NCI-H2023 | 0.599 | 0.48 | 0.758 | 0.488 | 0.236 | 0.237 | 0.221 | 0.209 | 0.25 | 0.452 | 0.455 | 0.465 | 0.544 | 0.551 | 0.95 | 1.09 | 0.969 | 0.914 | 1.06 |
| NCI-H2085 | 0.227 | 0.261 | 0.267 | 0.228 | 0.429 | 0.426 | 0.463 | 0.437 | 0.498 | 0.794 | 0.81 | 0.772 | 0.818 | 0.551 | 1.07 | 1.18 | 1.15 | 1 | 0.792 |
